Test results published in patent US10633389B2, “CARM1 inhibitors and uses thereof” (Epizyme, Inc., priority 2013, dated 2020).

Legend:
NCI-H929 cells = assay: Human myeloma cell line 14-day proliferation assay, NCI-H929; format: cell-based; conditions: NCI-H929 Human Multiple Myeloma cell line, varying doses, 14-day proliferation assay (FIG. 1A)
Protocol: (§1) FIGS. 1A and 1B show cell proliferation in response to the presence of compounds of the current invention. Human Multiple Myeloma cell lines NCI-H929 (FIG. 1A) and U266B1 (FIG. 1B) were treated with varying doses of 304-1a (medium grey data points), 23-3 (light grey data points), and 113-3 (black data points) in a 14-day proliferation assay. At the end of the experiment, total cell number was determined for each cell line for different doses of 304-1a, 23-3, and 113-3.
as §1, with “Human” for “FIGS. 1A and 1B show cell proliferation in response to the presence of compounds of the current invention. Human”

[1] = tested on: asymmetric di-methyl PABP1 in RKO cells; assay: RKO methylation assay, In Cell Western (ICW) for asymmetric di-methyl PABP1; format: cell-based; conditions: Homo sapiens, RKO, Cellular potencies, ICW PABP1me2a
How it was run: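 RKO cells treated with compound for 48 h at 37 °C, then fixed, permeabilized and immunostained for asymmetric di-methyl PABP1, with DRAQ5 as DNA stain. Infrared 700/800 nm signal ratio normalized to DMSO and 20 μM reference-compound controls; IC50 from triplicate wells.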

U266B1 cells = assay: Human myeloma cell line 14-day proliferation assay, U266B1; format: cell-based; conditions: U266B1 Human Multiple Myeloma cell line, varying doses, 14-day proliferation assay (FIG. 1B)
Protocol: as §1
as §1, with “Human” for “FIGS. 1A and 1B show cell proliferation in response to the presence of compounds of the current invention. Human”

human CARM1 (PRMT4) = human CARM1 (PRMT4) (Homo sapiens (Human), UniProt Q86X55); assay: CARM1 enzyme assay on peptide substrate (3H-SAM Flashplate); conditions: Biochemical potencies, read-out: Biochem IC50
Chain of human CARM1 (PRMT4) (Q86X55 other isoform, or with tags, fused parts or gaps isoform Q86X55-1): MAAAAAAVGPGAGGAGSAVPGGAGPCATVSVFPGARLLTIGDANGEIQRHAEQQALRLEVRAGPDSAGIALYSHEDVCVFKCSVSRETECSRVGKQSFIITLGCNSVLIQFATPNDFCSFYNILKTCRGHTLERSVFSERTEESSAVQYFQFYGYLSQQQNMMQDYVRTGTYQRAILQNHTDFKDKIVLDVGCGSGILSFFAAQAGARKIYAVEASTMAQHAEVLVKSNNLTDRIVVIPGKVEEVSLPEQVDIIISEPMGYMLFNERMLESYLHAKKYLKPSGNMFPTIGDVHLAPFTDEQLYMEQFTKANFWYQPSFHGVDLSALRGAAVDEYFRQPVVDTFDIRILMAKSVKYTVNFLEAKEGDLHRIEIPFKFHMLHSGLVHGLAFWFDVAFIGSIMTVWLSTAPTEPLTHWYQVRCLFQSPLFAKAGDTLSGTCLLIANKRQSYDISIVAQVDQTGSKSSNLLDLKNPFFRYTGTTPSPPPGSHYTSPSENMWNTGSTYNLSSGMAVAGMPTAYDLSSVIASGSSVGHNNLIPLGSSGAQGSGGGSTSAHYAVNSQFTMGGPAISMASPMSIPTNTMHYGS

SMILES | cell proliferation (total cell number) (NCI-H929 cells) | IC50 [1] | cell proliferation (total cell number) (U266B1 cells) | IC50 (human CARM1 (PRMT4))
CNC[C@@H](O)COc1ccc(Cl)c(-c2nc(-c3c(C)noc3C)c(C)c(N3Cc4cccnc4C3)n2)c1 [Example 113-3] | decreased the proliferation | < 5 µM | decreased the proliferation | 
CCOC(=O)N1CCOC[C@@H]1CNc1nc(-c2cc(OC[C@H](O)CNC)ccc2Cl)nc(-c2c(C)noc2C)c1C [Example 23-3] | decreased the proliferation | < 5 µM | decreased the proliferation | 
CNC[C@@H](O)COc1ccc(Cl)c(-c2nc(NC3CCN(C(=O)OC)CC3)c(Cl)c(-c3c(C)noc3C)n2)c1 [Example 304-1a] | decreased the proliferation | < 5 µM | decreased the proliferation | 
CNCC(O)COc1cccc(-c2nc(N[C@@H]3CCOC3)c(C)c(-c3cnccn3)n2)c1 (stereo partly shown) [Example 451-1a] |  | 10 to 20 µM |  | 0.1 to 1 µM
CNCC(O)COc1cccc(-c2nc(N[C@@H]3CCOC3)c(C)c(N3CCC(C)(O)CC3)n2)c1 (stereo partly shown) [Example 385-1a] |  | 10 to 20 µM |  | 0.1 to 1 µM
CNCC(O)COc1cccc(-c2nc(N[C@@H]3CCOC3)c(C)c(N3CCC(OCCOC)CC3)n2)c1 (stereo partly shown) [Example 386-1a] |  | 10 to 20 µM |  | 3 to 10 µM
CNCC(O)COc1cccc(-c2nc(NCCOC)cc(-c3cncnc3)n2)c1 (stereo not shown) [Example 659-1a] |  | ≥ 20 µM |  | 0.1 to 1 µM
CNCC(O)COc1cccc(-c2nc(-c3ccn4cnnc4c3)c(C)c(-c3c(C)noc3C)n2)c1 (stereo not shown) [Example 37-1a] |  | 10 to 20 µM |  | 0.1 to 1 µM
CCN(c1nc(-c2cccc(OCC(O)CNC)c2)nc(NC2CCOCC2)c1C)C1CCOCC1 (stereo not shown) [Example 606-1a] |  | 10 to 20 µM |  | 1 to 3 µM
CNCC(O)COc1cccc(-c2nc(NC3CCOCC3)c(C)c(-c3c(C)nn(C)c3C)n2)c1 (stereo not shown) [Example 678-1a] |  | ≥ 20 µM |  | 0.1 to 1 µM
CNCC(O)COc1cccc(-c2nc(C(=O)N(C)CC3CCOCC3)cc(-c3c(C)noc3C)n2)c1 (stereo not shown) [Example 46-1a] |  | 10 to 20 µM |  | 0.1 to 1 µM
CNCC(O)COc1cccc(-c2nc(N[C@@H]3CCOC3)c(C)c(-c3ccnnc3)n2)c1 (stereo partly shown) [Example 459-1a] |  | 10 to 20 µM |  | 0.1 to 1 µM
CNCC(O)COc1cccc(-c2nc(N[C@@H]3CCOC3)c(C)c(-c3c(C)ncnc3C)n2)c1 (stereo partly shown) [Example 460-1a] |  | 10 to 20 µM |  | 0.1 to 1 µM
CNCC(O)COc1cccc(-c2nc(N[C@H]3C[C@@H](C(=O)O)C3)c(C)c(-c3c(C)noc3C)n2)c1 (stereo partly shown) [Example 223-1a] |  | 10 to 20 µM |  | 1 to 3 µM
CNC[C@@H](O)COc1cccc(-c2nc(NCC3CCOCC3)cc(-c3cn(S(C)(=O)=O)c4ncncc34)n2)c1 [Example 686-1a] |  | ≥ 20 µM |  | 0.1 to 1 µM
CNCC(O)COc1cccc(-c2nc(N[C@@H]3CCOC3)c(C)c(N3CCN(C(C)=O)C4(CC4)C3)n2)c1 (stereo partly shown) [Example 423-1a] |  | 10 to 20 µM |  | 0.1 to 1 µM
CNCC(O)COc1cccc(-c2nc(NCCOC)cc(-c3ccnc(OC)c3)n2)c1 (stereo not shown) [Example 638-1a] |  | ≥ 20 µM |  | 0.1 to 1 µM
CNCC(O)COc1cccc(-c2nc(NC3CCOCC3)c(C)c(N3CCN(C4CC4)CC3)n2)c1 (stereo not shown) [Example 663-1a] |  | ≥ 20 µM |  | 0.1 to 1 µM

SMILES | cell proliferation (total cell number) (NCI-H929 cells) | IC50 [1] | cell proliferation (total cell number) (U266B1 cells) | IC50 (human CARM1 (PRMT4))
CNCC(O)COc1cccc(-c2nc(N[C@@H]3CCOC3)c(C)c(-c3cnc(=O)[nH]c3)n2)c1 (stereo partly shown) [Example 357-1a] |  | 10 to 20 µM |  | 0.1 to 1 µM
CNCC(O)COc1cccc(-c2nc(NC3CCCC3)c(C)c(N3CCOCC3)n2)c1 (stereo not shown) [Example 683-1a] |  | ≥ 20 µM |  | 0.1 to 1 µM
CNCC(O)COc1cccc(-c2nc(N[C@@H]3CC[C@H](O)C3)c(C)c(N3CCOCC3)n2)c1 (stereo partly shown) [Example 687-1a] |  | ≥ 20 µM |  | 0.1 to 1 µM
CNCC(O)COc1cccc(-c2nc(NC3CCOCC3)cc(-c3ccc(C(F)(F)F)nc3)n2)c1 (stereo not shown) [Example 654-1a] |  | ≥ 20 µM |  | 0.1 to 1 µM
CNCC(O)COc1cccc(-c2nc(C(=O)NC3CCOCC3)cc(-c3c(C)noc3C)n2)c1 (stereo not shown) [Example 52-1a] |  | 10 to 20 µM |  | 0.1 to 1 µM
CNCC(O)COc1cccc(-c2nc(N[C@@H]3CCOC3)c(C)c(-c3cc[nH]n3)n2)c1 (stereo partly shown) [Example 349-1a] |  | 10 to 20 µM |  | 0.1 to 1 µM
CNCC(O)COc1cccc(-c2nc(C3CCCC3)cc(C(CCOC)CCOC)n2)c1 (stereo not shown) [Example 650-1a] |  | ≥ 20 µM |  | 0.1 to 1 µM
CNCC(O)COc1cccc(-c2nc(C(=O)NCC3CCOCC3)cc(-c3c(C)noc3C)n2)c1 (stereo not shown) [Example 65-1a] |  | 10 to 20 µM |  | 0.1 to 1 µM
CNCC(O)COc1cccc(-c2nc(NC3(C)CCOCC3)cc(N3CCOCC3)n2)c1 (stereo not shown) [Example 684-1a] |  | ≥ 20 µM |  | 1 to 3 µM
CNCC(O)COc1cccc(-c2nc(C(=O)N(C)CC3CCOCC3)cc(N(C)C3CCOCC3)n2)c1 (stereo not shown) [Example 592-1a] |  | 10 to 20 µM |  | 0.1 to 1 µM
CNCC(O)COc1cccc(-c2nc(N[C@@H]3CCOC3)c(C)c(-c3ccnc(OCCOC)c3)n2)c1 (stereo partly shown) [Example 406-1a] |  | 5 to 10 µM |  | 0.1 to 1 µM
CNCC(O)COc1cccc(-c2nc(N[C@H]3C[C@H](C(=O)O)C3)c(C)c(-c3c(C)noc3C)n2)c1 (stereo partly shown) [Example 222-1a] |  | 10 to 20 µM |  | 0.1 to 1 µM
CNCC(O)COc1cccc(-c2nc(N[C@@H]3CCOC3)c(C)c(-c3ccnc(-n4ccnc4)c3)n2)c1 (stereo partly shown) [Example 405-1a] |  | 10 to 20 µM |  | 0.1 to 1 µM
CNCC(O)COc1cccc(-c2nc(N[C@@H]3CCOC3)c(C)c(-c3ccnc(N(C)C)c3)n2)c1 (stereo partly shown) [Example 389-1a] |  | 10 to 20 µM |  | 0.1 to 1 µM
CNCC(O)COc1cccc(-c2nc(N[C@@H]3CCOC3)c(C)c(-c3ccnn3C)n2)c1 (stereo partly shown) [Example 337-1a] |  | 5 to 10 µM |  | 0.1 to 1 µM
CNCC(O)COc1cccc(-c2nc(-c3ccncc3)cc(N(C)C3CCN(C)CC3)n2)c1 (stereo not shown) [Example 674-1a] |  | ≥ 20 µM |  | 0.1 to 1 µM
CNCC(O)COc1cccc(-c2nc(N[C@H]3CO[C@H]4OCC[C@H]43)c(C)c(N3CCOCC3)n2)c1 (stereo partly shown) [Example 374-1a] |  | 10 to 20 µM |  | 0.1 to 1 µM
